Data from US20120148647A1, “Photoresponsive Sunscreen Composition” (Blueshift Pharma GmbH, priority 2009, published 2012).
Like-named read-outs stand apart in the source and are kept apart here. Blank lines part the entries; values can stand above or below the compound they belong to.

Legend:
[1] = cited from earlier work
[2] = UV absorbance spectra in protonated and deprotonated form (different pH, or before and after HCl); assay type: physicochemical; settings: FIGS. 1 to 4
From the text: Methods to determine if a given sunscreen agent measurably changes its absorbance of UV radiation upon protonation or deprotonation will be readily available to the skilled person, but include a method summarised by the following steps. First, identify a suitable solvent for said sunscreen agent. Such a solvent may be hydrophilic (eg water or glycerine) organic/protic (eg ethanol, isopropanol or octanol), organic/polar aprotic (eg DMSO, acetonitrile or dichloromethane) or organic/unipolar (eg hexane, hexadecane or diethylether). Second, record the UV-Visible (200 nm-800 nm) absorbance spectra of a solution of the sunscreen agent using a suitable photospectrometer (such as a Beckmann DU-640 Spectrometer as described in the examples herein). Third, take an aliquot of the sunscreen UV filter solution and add a strong acid (eg trifluoroacetic acid, or hydrochloric acid, or perchloric acid) and record its UV-Visible absorbance spectra. Neutralize with a base (see next step) to check for reversibility and record the UV-Visible absorbance spectra again. Fourth, take another aliquot of the sunscreen UV filter solution and add a strong base (eg NaOH, KOH, Triethylamine, Tris(hydroxymethyl)aminomethane (TRIS)) and record its UV-Visible absorbance spectra. Neutralize with an acid (see previous step) to check for reversibility and record the resulting UV-Visible absorbance spectra. Fifth, repeat the above steps with (a) more than one acid, (b) more than one base and (c) more than one solvent to exclude artifacts from specific UV-filter-ion interactions, or specific UV-filter-solvent interactions. Conclusion: measureable changes in UV absorbance that are observed in one or more of such repeat experiments for a give sunscreen agent identify that such sunscreen agent is a suitable sunscreen agent for use in the context of the present invention.
The pH was adjusted with NaOH/HCl in aqueous solution.

[3] = Predicted SPF calculated from absorption spectra; assay type: physicochemical
From the text: Predicted SPFs can be accurately determined from absorption spectra using standardized calculations based on the erythemal action spectrum, and such predicted SPFs correlate very well with in vivo determined SPFs. Corresponding algorithms for calculating SPF values are known in the art and corresponding computer programs are available; see, for example, http://www.sunscreensimulator.basf.com/Sunscreen_Simulator. Using the absorption spectrum shown in FIG. 2, the predicted SPF of a composition containing the deprotonated form of Padimate-O is approximately 10-fold higher than that of a composition containing the protonated form. With Benzophenone-4 (FIG. 1), the protonated form provides a composition having approximately 3 times the SPF as a composition containing the deprotonated form.

[4] = excited state after light absorption; cited from earlier work

Compound: COc1ccc(C(=O)c2ccccc2)c(O)c1 [oxybenzone]
oxybenzone degraded ([1]; irradiation of oxybenzone and titanium dioxide, after 20 min of UV exposure): about 70% | oxybenzone degraded ([1]; solution containing oxybenzone alone, after 260 min): 50%

effect of protonation state on UV absorption [2]: absorbs less UV radiation
Compound: Nc1ccc(C(=O)O)cc1 [PABA, p-aminobenzoic acid]

effect of protonation state on UV absorption [2]: largely inactive in its protonated form
Compound: CCCCCCOC(=O)c1ccccc1C(=O)c1ccc(N(CC)CC)cc1O [2-(4-diethylamino-2-hydroxybenzoyl)-benzoic acid hexylester]

Compound: CCCCC(CC)COC(=O)c1ccc(N(C)C)cc1 (stereo not drawn) [Padimate-O, Ethylhexyl Dimethyl PABA]
predicted SPF of composition with deprotonated form relative to protonated form ([3]; from absorption spectrum of FIG. 2 (acetonitrile, before/after equimolar HCl)): approximately 10 fold | effect of protonation state on UV absorption [2]: shifts the absorption maximum of padimate-O from the UVB region to UVC

Compound: COc1cc(O)c(C(=O)c2ccccc2)cc1S(=O)(=O)O [Benzophenone-4]
SPF of composition with protonated form relative to deprotonated form ([3]; from absorption spectra of FIG. 1 (ethanol/water, pH 5 to 12)): approximately 3 times | effect of protonation state on UV absorption [2]: protonated state being the from that absorbs more UVB radiation

Compound: Oc1cccc2ccccc12 [Example 1-naphthol, 1-naphthol]
pKa in the excited state [4]: 0.4
